Patent publication US20250312320A1, “METHOD AND TREATMENT FOR OSTEOARTHRITIS AND DISEASES OF CHONDROCYTE HYPERTROPHY” (The Royal Veterinary College, priority 2022, published 2025)

System: ATDC5 micromass
Assay: Dose response of CDK8 inhibitors on ATDC5 micromass (alizarin red / alcian blue)
Assay type: cell-based, mouse
Settings: day 14
Description: (§1) In brief, 2 μl micromasses were seeded in a 96-well plate and cultured as previous in the presence of BI1347 and additional CDK8i compounds namely BRD6989, AS2863619, SEL120-34A, MSC2530818 and CCT251545. Compound concentrations were titrated 10-fold from 10 μM down to 0.1 nM. On day 14 micromasses were fixed, stained and subsequently leached to allow for dose response analysis to be conducted.
as §1, with “seeded on” for “seeded in”, “additional Mediator kinase inhibitor” for “additional CDK8i”

Cc1nc2ccc(-n3c(-c4nonc4N)nc4cnccc43)cc2[nH]1.Cl.Cl [AS2863619] was tested, and the “alcian blue staining (GAG deposition)” value (highest concentration of 10 μM) was “modestly reduced”.

With CC1CCc2nc(N)c(C#N)c(-c3cccnc3)c2C1 (stereo not shown) [BRD6989] the “alcian blue staining (GAG deposition)” value (all concentrations (10 μM down to 0.1 nM)) was “maintained”.

Cn1cc(-c2ccc(-c3cncc(Cl)c3N3CCC4(CCNC4=O)CC3)cc2)cn1 [CCT251545] was tested, and the “alcian blue staining (GAG deposition)” value (highest concentration of 10 μM) was “modestly reduced”.

For Cc1c(Br)c(Br)c2c3c1nc(N1CCNCC1)n3CCC2.Cl [SEL120-34A], the “alcian blue staining (GAG deposition)” value (highest concentration of 10 μM) was “modestly reduced”.
